# In patent publication US10597388B2, “Pyridazinone herbicides” (FMC CORPORATION, priority 2014, dated 2020):
# What was measured:
# Assay in all cases: Test D controlled growth environment herbicide test, pre- and postemergence
# Type in all cases: in vivo
# [1] = system: field poppy (Papaver rhoeas)
# How it was run: (§1)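 Pre-emergence: seeds sown in silt loam soil were sprayed with compound in a non-phytotoxic solvent mix containing surfactant. Post-emergence: plants at 2 to 18 cm (1- to 4-leaf stage) in peat moss/vermiculite medium got the same formulation. Visual 0–100 rating versus controls after 14 to 21 d.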
# [2] = system: bluegrass (annual bluegrass, Poa annua)
# How it was run: as §1
# [3] = system: wheat, winter (winter wheat, Triticum aestivum)
# How it was run: as §1
# [4] = system: chickweed (common chickweed, Stellaria media)
# How it was run: as §1
# [5] = system: canarygrass (Phalaris minor)
# How it was run: as §1
# [6] = system: barley, spring (spring barley, Hordeum vulgare)
# How it was run: as §1
# [7] = system: Russian thistle (Salsola kali)
# How it was run: as §1
# [8] = system: lambsquarters (Chenopodium album)
# How it was run: as §1
# [9] = system: oat, wild (wild oat, Avena fatua)
# How it was run: as §1
# [10] = system: wheat, spring (spring wheat, Triticum aestivum)
# How it was run: as §1
# [11] = system: field violet (Viola arvensis)
# How it was run: as §1
# [12] = system: radish, wild (wild radish, Raphanus raphanistrum)
# How it was run: as §1
# [13] = system: barley, winter (winter barley, Hordeum vulgare)
# How it was run: as §1
# [14] = Postemergence, 31 g ai/ha, scale 0 to 100 (0 no effect, 100 complete control)
# [15] = Postemergence, 125 g ai/ha, visual rating on scale 0 (no effect) to 100 (complete control), 14 to 21 d
# [16] = Postemergence, 250 g ai/ha, scale 0 to 100 (0 no effect, 100 complete control)
# [17] = Preemergence, 62 g ai/ha, scale 0 to 100 (0 no effect, 100 complete control)
# [18] = Preemergence, 125 g ai/ha, scale 0 to 100 (0 no effect, 100 complete control)
# [19] = Preemergence, 250 g ai/ha, scale 0 to 100, 0 no effect, 100 complete control
# [20] = postemergence, 62 g ai/ha, scale 0 to 100, 0 no effect, 100 complete control
structure (smiles),measurement,setting,value
Cc1nn(C)c(=O)c(-c2c(C)sc3ccc(Br)cc23)c1O [Compound 22],Field Poppy plant response rating,[1]; [14],75
same,"Plant response rating, Field Poppy",[1]; [15],100
same,"Plant response rating, Field Poppy",[1]; [16],100
same,"Plant response rating (scale of 0 to 100), Field Poppy","[1]; Preemergence, 31 g ai/ha",0
same,"Plant response rating, Field Poppy",[1]; [17],0
same,"Plant response rating, Field Poppy",[1]; [18],100
same,"Plant response rating, Field Poppy",[1]; [19],100
same,"Plant response rating, Field Poppy",[1]; [20],85
same,Bluegrass plant response rating,[2]; [14],10
same,"Plant response rating, Bluegrass",[2]; [15],25
same,"Plant response rating, Bluegrass",[2]; [16],25
same,"Plant response rating (scale of 0 to 100), Bluegrass","[2]; Preemergence, 31 g ai/ha",0
same,"Plant response rating, Bluegrass",[2]; [17],30
same,"Plant response rating, Bluegrass",[2]; [18],30
same,Bluegrass plant response rating,[2]; [19],40
same,"Plant response rating, Bluegrass",[2]; [20],15
same,"Wheat, Winter plant response rating",[3]; [14],5
same,"Plant response rating, Wheat, Winter",[3]; [15],15
same,"Plant response rating, Wheat, Winter",[3]; [16],15
same,"Plant response rating (scale of 0 to 100), Wheat, Winter","[3]; Preemergence, 31 g ai/ha",0
same,"Plant response rating, Wheat, Winter",[3]; [17],0
same,"Plant response rating, Wheat, Winter",[3]; [18],0
same,"Plant response rating, Wheat, Winter",[3]; [19],5
same,"Plant response rating, Wheat, Winter",[3]; [20],5
same,Chickweed plant response rating,[4]; [14],85
same,"Plant response rating, Chickweed",[4]; [15],98
same,"Plant response rating, Chickweed",[4]; [16],100
same,"Plant response rating (scale of 0 to 100), Chickweed","[4]; Preemergence, 31 g ai/ha",95
same,"Plant response rating, Chickweed",[4]; [17],100
same,"Plant response rating, Chickweed",[4]; [18],100
same,"Plant response rating, Chickweed",[4]; [19],100
same,"Plant response rating, Chickweed",[4]; [20],95
same,Canarygrass plant response rating,[5]; [14],20
same,"Plant response rating, Canarygrass",[5]; [15],40
same,"Plant response rating, Canarygrass",[5]; [16],65
same,"Plant response rating (scale of 0 to 100), Canarygrass","[5]; Preemergence, 31 g ai/ha",25
same,"Plant response rating, Canarygrass",[5]; [17],35
same,"Plant response rating, Canarygrass",[5]; [18],85
same,"Plant response rating, Canarygrass",[5]; [19],90
same,"Plant response rating, Canarygrass",[5]; [20],35
same,"Plant response rating, Barley, Spring",[6]; [14],0
same,"Plant response rating, Barley, Spring",[6]; [15],15
same,"Plant response rating, Barley, Spring",[6]; [16],15
same,"Plant response rating (scale of 0 to 100), Barley, Spring","[6]; Preemergence, 31 g ai/ha",0
same,"Plant response rating, Barley, Spring",[6]; [17],0
same,"Plant response rating, Barley, Spring",[6]; [18],0
same,"Barley, Spring plant response rating",[6]; [19],0
same,"Plant response rating, Barley, Spring",[6]; [20],0
same,Russian Thistle plant response rating,[7]; [14],65
same,"Plant response rating, Russian Thistle",[7]; [15],75
same,"Plant response rating, Russian Thistle",[7]; [16],85
same,"Plant response rating (scale of 0 to 100), Russian Thistle","[7]; Preemergence, 31 g ai/ha",0
same,"Plant response rating, Russian Thistle",[7]; [17],0
same,"Plant response rating, Russian Thistle",[7]; [18],0
same,"Plant response rating, Russian Thistle",[7]; [19],20
same,"Plant response rating, Russian Thistle",[7]; [20],70
same,Lambsquarters plant response rating,[8]; [14],80
same,"Plant response rating, Lambsquarters",[8]; [15],95
same,"Plant response rating, Lambsquarters",[8]; [16],98
same,"Plant response rating (scale of 0 to 100), Lambsquarters","[8]; Preemergence, 31 g ai/ha",100
same,"Plant response rating, Lambsquarters",[8]; [17],100
same,"Plant response rating, Lambsquarters",[8]; [18],100
same,"Plant response rating, Lambsquarters",[8]; [19],100
same,"Plant response rating, Lambsquarters",[8]; [20],85
same,"Oat, Wild plant response rating",[9]; [14],65
same,"Plant response rating, Oat, Wild",[9]; [15],85
same,"Plant response rating, Oat, Wild",[9]; [16],100
same,"Plant response rating (scale of 0 to 100), Oat, Wild","[9]; Preemergence, 31 g ai/ha",30
same,"Plant response rating, Oat, Wild",[9]; [17],55
same,"Plant response rating, Oat, Wild",[9]; [18],70
same,"Plant response rating, Oat, Wild",[9]; [19],95
same,"Plant response rating, Oat, Wild",[9]; [20],85
same,"Wheat, Spring plant response rating",[10]; [14],5
same,"Plant response rating, Wheat, Spring",[10]; [15],10
same,"Plant response rating, Wheat, Spring",[10]; [16],15
same,"Plant response rating (scale of 0 to 100), Wheat, Spring","[10]; Preemergence, 31 g ai/ha",0
same,"Plant response rating, Wheat, Spring",[10]; [17],0
same,"Plant response rating, Wheat, Spring",[10]; [18],10
same,"Plant response rating, Wheat, Spring",[10]; [19],25
same,"Plant response rating, Wheat, Spring",[10]; [20],10
same,Field Violet plant response rating,[11]; [14],70
same,"Plant response rating, Field Violet",[11]; [15],75
same,"Plant response rating, Field Violet",[11]; [16],95
same,"Plant response rating (scale of 0 to 100), Field Violet","[11]; Preemergence, 31 g ai/ha",20
same,"Plant response rating, Field Violet",[11]; [17],65
same,"Plant response rating, Field Violet",[11]; [18],80
same,"Plant response rating, Field Violet",[11]; [19],100
same,"Plant response rating, Field Violet",[11]; [20],70
same,"Radish, Wild plant response rating",[12]; [14],85
same,"Plant response rating, Radish, Wild",[12]; [15],100
same,"Plant response rating, Radish, Wild",[12]; [16],85
same,"Plant response rating (scale of 0 to 100), Radish, Wild","[12]; Preemergence, 31 g ai/ha",0
same,"Plant response rating, Radish, Wild",[12]; [17],25
same,"Plant response rating, Radish, Wild",[12]; [18],70
same,"Plant response rating, Radish, Wild",[12]; [19],80
same,"Plant response rating, Radish, Wild",[12]; [20],75
same,"Plant response rating, Barley, Winter",[13]; [14],0
same,"Plant response rating, Barley, Winter",[13]; [15],0
same,"Plant response rating, Barley, Winter",[13]; [16],5
same,"Plant response rating (scale of 0 to 100), Barley, Winter","[13]; Preemergence, 31 g ai/ha",0
same,"Plant response rating, Barley, Winter",[13]; [17],0
same,"Plant response rating, Barley, Winter",[13]; [18],0
same,"Barley, Winter plant response rating",[13]; [19],0
same,"Plant response rating, Barley, Winter",[13]; [20],0
Cc1ccc2ccccc2c1-c1c(O)c(Br)nn(C)c1=O [Compound 23],"Plant response rating, Field Poppy",[1]; [15],100
same,"Plant response rating, Field Poppy",[1]; [16],100
same,"Plant response rating, Field Poppy",[1]; [20],100
same,"Plant response rating, Bluegrass",[2]; [15],35
same,"Plant response rating, Bluegrass",[2]; [16],40
same,"Plant response rating, Bluegrass",[2]; [20],35
same,"Plant response rating, Wheat, Winter",[3]; [15],55
same,"Plant response rating, Wheat, Winter",[3]; [16],70
same,"Plant response rating, Wheat, Winter",[3]; [20],40
same,"Plant response rating, Chickweed",[4]; [15],100
same,"Plant response rating, Chickweed",[4]; [16],100
same,"Plant response rating, Chickweed",[4]; [20],100
same,"Plant response rating, Canarygrass",[5]; [15],85
same,"Plant response rating, Canarygrass",[5]; [16],90
same,"Plant response rating, Canarygrass",[5]; [20],75
same,"Plant response rating, Barley, Spring",[6]; [15],25
same,"Plant response rating, Barley, Spring",[6]; [16],30
same,"Plant response rating, Barley, Spring",[6]; [20],15
same,"Plant response rating, Russian Thistle",[7]; [15],75
same,"Plant response rating, Russian Thistle",[7]; [16],80
same,"Plant response rating, Russian Thistle",[7]; [20],75
same,"Plant response rating, Lambsquarters",[8]; [15],75
same,"Plant response rating, Lambsquarters",[8]; [16],80
same,"Plant response rating, Lambsquarters",[8]; [20],75
same,"Plant response rating, Oat, Wild",[9]; [15],95
same,"Plant response rating, Oat, Wild",[9]; [16],95
same,"Plant response rating, Oat, Wild",[9]; [20],75
same,"Plant response rating, Wheat, Spring",[10]; [15],60
same,"Plant response rating, Wheat, Spring",[10]; [16],60
same,"Plant response rating, Wheat, Spring",[10]; [20],50
same,"Plant response rating, Field Violet",[11]; [15],75
same,"Plant response rating, Field Violet",[11]; [16],75
same,"Plant response rating, Field Violet",[11]; [20],45
same,"Plant response rating, Radish, Wild",[12]; [15],100
same,"Plant response rating, Radish, Wild",[12]; [16],100
same,"Plant response rating, Radish, Wild",[12]; [20],75
same,"Plant response rating, Barley, Winter",[13]; [15],25
same,"Plant response rating, Barley, Winter",[13]; [16],30
same,"Plant response rating, Barley, Winter",[13]; [20],15
